Test results: US20240261410A1, “SODIUM DE[…] ACID AS […]” (priority 2023, published 2024)

What was measured:
[1] = Solubilization in water with sodium deoxycholate; assay type: physicochemical; settings: at 50° C., same conditions for tunicamycin and TunR1
Method: (§1) The modified tunicamycin TunR2 solid powder (8 mg, […]) and DOC solid powder (4.4 mg, […]) were vortexed together in an equimolar ratio, and was prepared in water for injection (3 mL) and stirred until dissolved. If needed, the pH was adjusted to 5.8 by addition of 10% acetic acid. The TunR2 was initially insoluble under these conditions, but began to dissolve after 5 minutes at 50° C. (in the range of about 50° C. to about 70° C.) and was completely soluble after 10 minutes at this temperature (FIG. 6A to FIG. 6C). […] The native tunicamycin solution became somewhat hazy after this time, but was readily clarified on gentle re-warming.
(§2) The present work undertaken to develop a water-soluble TunR2 formulation solubilized by sodium deoxycholate to reduce the solvent toxicity and to improve the physiochemical properties. Solutions were prepared either by mixing together TunR2 and DOC powders in equimolar portions and adding water, or by preparing a DOC aqueous stock solution and adding this directly to the TunR2. At 10 mg/mL, the TunR2 was initially insoluble under these conditions, but began to dissolve after 5 minutes at 50° C. and was completely soluble after 10 minutes at this temperature. […] The native tunicamycin solution became somewhat hazy after this time, but was readily clarify on gentle re-warming.

[2] = Stability of the aqueous DOC solutions on standing at room temperature; assay type: physicochemical; settings: 18 hours at room temperature
Method: as §1, §2

[3] = tested on: Mycobacterium smegmatis mc^2 155; test: MIC and MBIC (growth and biofilm formation), two-fold broth dilution in TYG; assay type: cell-based
Method: MICs and MBICs were evaluated using two-fold broth dilution series in 96-well round-bottom microtiter plates. […]
Two-fold dilutions were then prepared as follows. […] The box was placed into the 37° C. incubator and microbial growth and biofilm formation were assessed visually on a daily basis for six days. […]

[4] = tested on: Bacillus subtilis ATCC 6633; test: MIC, two-fold broth dilution in TYG, 96-well microtiter plates; assay type: cell-based; settings: TunR2 in DMSO, TunR2-DOC and DOC in water, table prints no unit (dilution series in μg/mL)
Method: (§3) Seed cultures of Bacillus subtilis ATCC 6633, Escherichia coli ATCC 9637, Mycobacterium smegmatis mc^2 155, and Saccharomyces cerevisiae NRRL Y-139 were started from freezer stocks and grown in tryptone-yeast extract-glucose (TYG) broth for 24 hours at 27° C. Microbial dilutions were prepared as follows. Sterile PBS (phosphate buffer saline, 1 mL) was added to a glass tube using a disposable 10 mL pipet. Using a sterile loop microbial material was transferred from an agar plate, and the turbidity was measured and adjusted to 1.0 Macfarlane units. The inoculum dilution was then prepared. To a sterile 50 mL blue-capped centrifuge tube, 50 mL TYG stock media were added using a 25 mL disposable pipet. To this tube was then added 1 mL of the microbial dilution, and the contents were mixed by vortexing (this will give a 1:50 v/v dilution). This 1:50 v/v dilution inoculum was dispensed using a multichannel pipet, adding 100 μL to each well of a 96-well round-bottom microtiter plate.
(§4) MICs and MBICs were evaluated using two-fold broth dilution series in 96-well round-bottom microtiter plates. Diluted solutions were prepared by adding 20 μl of the 1 mg/mL stock of the TunR2 to 1.980 mL of TYG in a 15 mL blue-capped centrifuge tube for a total of 2 mL volume at 10 μg/mL. […] A blank of 20 μl dimethyl sulfoxide (DMSO) up to 2 mL TYG was also included. The microtiter plates were then set up as follows. To wells 1, 2, and 3 of the first row (A row) of the microtiter plate 200 μl of TYG media control were added. To wells 4, 5, and 6 in row A of the plate 200 μl TYG+TunR2 (10 μg/mL) were added. To wells 7, 8, and 9 in row A of the plate, 200 μl TYG+DOC (5 μg/mL) were added. And to wells 10, 11, and 12 in row A of the plate, 200 μl TYG+TunR2 (10 μg/mL)+DOC (5 μg/mL) were added. To the remaining wells of the microtiter plate 100 μl of the sterile TYG liquid media were added.
(§5) Two-fold dilutions were then prepared as follows. […] The box was placed into the 37° C. incubator and microbial growth and biofilm formation were assessed visually on a daily basis for six days.

[5] = tested on: Escherichia coli ATCC 9637; test: as above; assay type: cell-based; settings: TunR2 in DMSO, TunR2-DOC and DOC in water, table prints no unit (dilution series in μg/mL)
Method: as §3, §4, §5

[6] = tested on: Saccharomyces cerevisiae NRRL Y-139; test: as above; assay type: cell-based; settings: TunR2 in DMSO, TunR2-DOC and DOC in water, table prints no unit (dilution series in μg/mL)
Method: as §3, §4, §5

[7] = DOSY-NMR, 10 mM in D2O, 600 MHz, not a partition coefficient
Method: 1H and 2D NMR (COSY, HSQC, and HMBC) spectra were recorded on a Bruker Avance III 500 MHz spectrometer operating at 125 MHz. The spectra were obtained in methanol-d4 or DMSO-d6 using residual solvent signals as internal standards. Diffusion orientated (DOSY) NMR spectra were obtained on a JEOL 600 mHz instrument using DOSY pulse sequences provide by the manufacturer.
The diffusion constants (log D) of residual deuterated water (HDO) and methanol (MeOD) are also indicated on the graphs. The corresponding ^1H-NMR spectra are shown above the graphs. All spectra were acquired at 600 MHz.

Substance	time to complete dissolution in water with DOC ([1]; 8 mg TunR2 + 4.4 mg DOC in 3 mL water for injection) [min]	time to complete dissolution in water with DOC ([1]; at 10 mg/mL, equimolar DOC) [min]	state of aqueous DOC solution after cooling and standing [2]	effect of DOC control in the MIC assays ([3]; DOC at the same concentration as the TunR2)	Minimal Inhibitory Concentration ([3]; first figure of cell MIC/MBIC, TunR2 in DMSO, TunR2-DOC and DOC in water, unit not given)	Minimal Inhibitory Concentration [4]	Minimal Inhibitory Concentration [5]	Minimal Inhibitory Concentration [6]	diffusion constant (log D) [7]
tunicamycin	≤ 5	≤ 5	somewhat hazy						
5β-cholan-24-oic acid-3α, 12α-diol sodium salt [DOC]				no effect	>2.5	>2.5	>2.5	>2.5	−9.66
